Experimental data as given in ChEMBL document CHEMBL4834494, “Discovery of the First Non-cGMP Mimetic Small Molecule Activators of cGMP-Dependent Protein Kinase 1 α (PKG1α)” (ACS Med Chem Lett, 2021).
Values after ≈ are worked out from the molar mass of the structure shown.

Key:
[1] = molecular target: T1, cGMP-dependent protein kinase 1 (Homo sapiens, UniProt Q13976); assay: Activation of full length PKG1alpha (unknown origin) using Glass-tide peptide substrate incubated for 120 mins followed by addition of ADP-Glo max reagent incubated for 40 mins
T1 sequence (Q13976 whole entry): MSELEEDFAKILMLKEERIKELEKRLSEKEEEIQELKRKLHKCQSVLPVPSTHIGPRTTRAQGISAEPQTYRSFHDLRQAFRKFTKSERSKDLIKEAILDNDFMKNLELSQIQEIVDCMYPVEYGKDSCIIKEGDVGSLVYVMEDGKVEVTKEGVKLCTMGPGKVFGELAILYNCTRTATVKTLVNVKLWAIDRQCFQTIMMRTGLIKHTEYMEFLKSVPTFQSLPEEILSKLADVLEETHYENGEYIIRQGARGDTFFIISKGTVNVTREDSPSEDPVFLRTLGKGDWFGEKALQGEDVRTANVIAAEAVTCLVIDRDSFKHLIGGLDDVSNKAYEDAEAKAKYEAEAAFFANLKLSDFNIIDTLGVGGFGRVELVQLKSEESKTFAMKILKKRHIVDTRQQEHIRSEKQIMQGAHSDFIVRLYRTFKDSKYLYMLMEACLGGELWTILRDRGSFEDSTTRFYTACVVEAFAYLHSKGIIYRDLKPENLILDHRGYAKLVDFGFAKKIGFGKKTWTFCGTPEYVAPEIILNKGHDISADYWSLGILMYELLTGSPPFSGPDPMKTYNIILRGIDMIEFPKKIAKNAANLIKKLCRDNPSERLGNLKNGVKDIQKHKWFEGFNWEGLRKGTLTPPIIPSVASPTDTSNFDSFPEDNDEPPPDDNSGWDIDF

[2] = Solubility of compound by pH 7 measured for 24 hrs by UPLC analysis; assay type: physicochemical; conditions: buffer
[3] = Apparent permeability in dog MDCKII cells; assay type: ADME, cell-based, Canis lupus familiaris, MDCK-II; conditions: MDCK
[4] = molecular target: T1, cGMP-dependent protein kinase 1; assay: Activation of PKG1alpha (unknown origin) in human HEK293 cellls assessed as […] phosphorylation at Ser 239 incubated for 3 hrs by HTRF assay; assay type: cell-based

Clc1cc(Cl)cc(CO[C@H]2CCCN(Cc3ncco3)[C@H]2c2ccccc2)c1
EC50 [1]: > 200 µM

COC(=O)Nn1c(C[C@H]2CCC[C@H](OCc3cc(C(F)(F)F)cc(C(F)(F)F)c3)[C@@H]2c2ccccc2)n[nH]c1=O
solubility at 24 h [2]: 154 µM (≈ 88.2 µg/mL) | EC50 [1]: 4.5 µM | Papp [3]: 150 nm/s | EC50 [4]: 12 µM

O=C(O)c1ccc(CN2CCC[C@H](OCc3cc(Cl)cc(Cl)c3)[C@@H]2c2ccccc2)s1
EC50 [1]: 76 µM

OC[C@@H](O[C@H]1CCCN(Cc2ccccc2Cc2nnco2)[C@H]1c1ccccc1)c1cc(Cl)cc(Cl)c1
EC50 [1]: 3.7 µM

O=C(O)c1ccc(CN2CCC[C@H](O[C@H](CO)c3cc(Cl)cc(Cl)c3)[C@@H]2c2ccccc2)cc1
solubility at 24 h [2]: 85 µM (≈ 42.5 µg/mL) | EC50 [1]: 11 µM | Papp [3]: 160 nm/s | EC50 [4]: 15 µM

CN1CCC[C@H](O[C@H](CO)c2cc(Cl)cc(Cl)c2)[C@@H]1c1ccccc1
EC50 [1]: 42 µM

Cn1cc(CN2CCC[C@H](OCc3cc(Cl)cc(Cl)c3)[C@@H]2c2ccccc2)cn1
EC50 [1]: 110 µM

Clc1cc(Cl)cc(CO[C@H]2CCCN(Cc3ccncc3)[C@H]2c2ccccc2)c1
EC50 [1]: > 200 µM

COc1ccc(C(=O)O)cc1CN1CCC[C@H](OCc2cc(Cl)cc(Cl)c2)[C@@H]1c1ccccc1
EC50 [1]: 123 µM

O=C(O)c1ccc(CN2CCC[C@H](OCc3cc(Cl)cc(Cl)c3)[C@@H]2c2ccccc2)cn1
EC50 [1]: > 200 µM

Cn1ccnc1CN1CCC[C@H](OCc2cc(Cl)cc(Cl)c2)[C@@H]1c1ccccc1
EC50 [1]: 165 µM

Clc1cc(Cl)cc(CO[C@H]2CCCN(Cc3ccccc3)[C@H]2c2ccccc2)c1
EC50 [1]: > 200 µM

C[C@@H](O[C@H]1OCCN(Cc2n[nH]c(=O)[nH]2)[C@H]1c1ccc(F)cc1)c1cc(C(F)(F)F)cc(C(F)(F)F)c1 [APREPITANT]
EC50 [1]: > 200 µM

OC[C@@H](O[C@H]1CCCN(Cc2cccc3nonc23)[C@H]1c1ccccc1)c1cc(Cl)cc(Cl)c1
solubility at 24 h [2]: 154 µM (≈ 76.8 µg/mL) | EC50 [1]: 8 µM | Papp [3]: 110 nm/s | EC50 [4]: 141 µM

OC[C@@H](O[C@H]1CCCN(Cc2ncc[nH]2)[C@H]1c1ccccc1)c1cc(Cl)cc(Cl)c1
solubility at 24 h [2]: 60 µM (≈ 26.8 µg/mL) | Papp [3]: 190 nm/s | EC50 [4]: 8.8 µM

Clc1cc(Cl)cc(CO[C@H]2CCCN(Cc3ncc[nH]3)[C@H]2c2ccccc2)c1
solubility at 24 h [2]: 120 µM (≈ 50 µg/mL) | Papp [3]: 20 nm/s | EC50 [4]: > 164 µM

O=C(O)c1ccc2c(CN3CCC[C@H](O[C@H](CO)c4cc(Cl)cc(Cl)c4)[C@@H]3c3ccccc3)c[nH]c2c1
solubility at 24 h [2]: 128 µM (≈ 69.1 µg/mL) | EC50 [1]: 22 µM | Papp [3]: 40 nm/s | EC50 [4]: 140 µM

Clc1cc(Cl)cc(CO[C@H]2CCCN(Cc3ccccn3)[C@H]2c2ccccc2)c1
EC50 [1]: > 200 µM

CN1CCC[C@H](OCc2cc(Cl)cc(Cl)c2)[C@@H]1c1ccccc1
EC50 [1]: > 200 µM

COc1cc(C(=O)O)ccc1CN1CCC[C@H](OCc2cc(Cl)cc(Cl)c2)[C@@H]1c1ccccc1
EC50 [1]: 62 µM

O=C(O)c1cncc(CN2CCC[C@H](O[C@H](CO)c3cc(Cl)cc(Cl)c3)[C@@H]2c2ccccc2)c1
solubility at 24 h [2]: 74 µM (≈ 37.1 µg/mL) | EC50 [1]: 34 µM | Papp [3]: 140 nm/s | EC50 [4]: 28 µM

O=C(O)c1cncc(CN2CCC[C@H](OCc3cc(Cl)cc(Cl)c3)[C@@H]2c2ccccc2)c1
EC50 [1]: 117 µM

Clc1cc(Cl)cc(CO[C@H]2CCCN(Cc3ccc(-c4nn[nH]n4)cc3)[C@H]2c2ccccc2)c1
EC50 [1]: 74 µM

Clc1cc(Cl)cc(CO[C@H]2CCCN(Cc3nccs3)[C@H]2c2ccccc2)c1
EC50 [1]: > 200 µM

Clc1cc(Cl)cc(CO[C@H]2CCCN(Cc3cccnc3)[C@H]2c2ccccc2)c1
EC50 [1]: 112 µM

O=C(O)c1ccc(CN2CCC[C@H](OCc3cc(Cl)cc(Cl)c3)[C@@H]2c2ccccc2)cc1
EC50 [1]: 76 µM

OC[C@@H](O[C@H]1CCCN(Cc2ccc(-c3nn[nH]n3)cc2)[C@H]1c1ccccc1)c1cc(Cl)cc(Cl)c1
EC50 [1]: 131 µM
